Source: publication PMC8763936 (Investigational New Drugs, 2021)

Tests used:
[1] = system: human CYPs 1A2, 2B6, 2C8, 2C9, 2C19, 2D6 and 3A; assay: In vitro CYP inhibition in human liver microsomes, CYPs not named one by one; assay type: in vitro ADME; settings: entrectinib: all but CYP3A4/5, M5: all but CYP2C8, read-out: IC50 for the other CYPs tested
Experimental: (§1) In vitro induction of CYP mRNA (CYPs 1A2, 2C8, 2C9 and 3A4) or enzyme activity (CYPs 1A2, 2C19 and 3A4) was assessed in human hepatocytes.

[2] = Estimated free plasma Cmax in patients treated at 600 mg QD; assay type: in vivo, human; settings: unbound fraction of 1% used
[3] = humans, mass balance study; cited from earlier work
[4] = system: CYPs 1A2, 2B6, 2C8, 2C9, 2C19 and 2D6 (all tested CYPs but CYP3A4/5); assay: In vitro CYP inhibition in human liver microsomes, CYPs not named one by one; assay type: in vitro ADME; settings: human, read-out: IC50 for the other CYPs tested
Experimental: as §1

Row | Structure (SMILES) | IC50 [1] | estimated free Cmax in plasma [2] | share of total circulating radioactivity [3] | IC50 [4]
1 | O=C(Nc1n[nH]c2ccc(Cc3cc(F)cc(F)c3)cc12)c1ccc(N2CCNCC2)cc1NC1CCOCC1 [M5] | > 10 µM | 13.4 nM | 12% | 
2 | CN1CCN(c2ccc(C(=O)Nc3n[nH]c4ccc(Cc5cc(F)cc(F)c5)cc34)c(NC3CCOCC3)c2)CC1 [Entrectinib] |  |  |  | > 10 µM
